These results are taken from patent publication US20140294942A1, “ANTIVIRAL PEPTIDES EFFECTIVE AGAINST HEPATITIS C VIRUS” (THE REGENTS OF THE UNIVERSITY OF CALIFORNIA, priority 2011, published 2014).

For one series, the system named is replicon. Particulars: reported in the literature, read-out: IC50 in Cell Culture; cited from earlier work.
The conditions of series [1]: primer extension; reported in the literature; read-out: IC50 in in vitro Assays; cited from earlier work.
The target of another series is polymerase (Hepatitis C virus genotype 1a, UniProt P27958). Particulars: polymerase assay; reported in the literature; read-out: IC50 in in vitro Assays; cited from earlier work.
In series [2] the test system is NS5A-augmented IRES-mediated translation. Description: Bicistronic HCV IRES reporter assay (Firefly/Renilla luciferase). It counts as cell-based, Hepatitis C virus. Particulars: for effect of peptide treatment on NS5A-augmented IRES-mediated translation: cells treated with peptide and transfected with reporter construct and NS5A or GFP. The source says: FIG. 5A: Schematic of the bicistronic reporter construct used to measure IRESmediated translation. Firefly luciferase (FLuc) and Renilla luciferase (RLuc) are driven by HCV IRES and a 5′ cap, respectively. Each reporter has a stop codon to allow independent expression. Firefly to Renilla ratios are used to follow changes in levels of IRES-mediated translation. For all experiments, the IRES reporter, either NS5A or GFP, and a peptide construct (if indicated) were transfected into cells.
293T cells were transfected with HCV IRES reporter plasmid; either pMSCV5AFLAG or pMSCVGFP; and pCCL-CMV-IRES-EGFP plasmid expressing one of the following peptides: C34, NS5A domain II peptide, NS5A domain III peptide, NS3 peptide, or one of the C34 mutagenesis peptides. All transfections were done using Fugene 6 (Roche, 11814443001). 48 hours post transfection, Renilla and Firefly luciferase activity was determined using Dual Luciferase Assay System (Promega, E1910).
After identifying the C-terminal region of NS5A as the HSP70 binding site in vitro, we sought to determine whether this region has any functional significance. NS5A has been reported to increase IRES-mediated translation in a cell culture-based bicistronic reporter system (He et al. (2003) J. General Virol., 84: 535-543) (FIG. 5A). This reporter system consists of the Firefly luciferase open reading frame (ORF) driven by HCV IRES and Renilla luciferase ORF under the control of a 5′ cap (FIG. 5A). The ratio of Firefly to Renilla luciferase activity can be used to measure the levels of IRES-mediated translation. The C-terminal 34 amino acid peptide corresponding to amino acids 165-198 of NSSA domain I (hereafter referred to as C34) was tested for its effect on altering IRES-mediated translation. […]
We also assessed the impact of the HCV4 peptide on NS5A-augmented IRES-mediated translation. […]
Background: In a reporter assay the amount or activity of a reporter protein is the signal.

In series [3] the test system is HCV Renilla reporter virus. How it is done: (§1) Huh-7.5 cells were transfected with the indicated peptide construct and 48 hours later infected with the reporter virus for three hours. Cells were harvested 24 hours post infection, and Renilla activity was measured. All Renilla values were normalized to GFP transfection. […] Huh-7.5 cells were treated with the indicated concentrations of HCV4 or the arginine tag control peptide and immediately infected with the Renilla reporter virus for three hours. Cells were assayed 24 hours post infection for Renilla activity. ‘Percent protection’ refers to the percentage of decrease in Renilla levels compared with no peptide treatment.
pNRLFC was in vitro transcribed, and the purified RNA was electroporated into Huh-7.5 cells to generate infectious viral supernatant as previously described (Arumugaswami et al. (2008) PLoS Pathogens, 4: e1000182). Viral assays were done using the HCV reporter virus as described previously (Gonzalez et al. (2009) Hepatology50: 1756-1764).
(§2) Two cysteine residues were added to each end to allow for disulfide bond formation and to achieve a conformation similar to the C34 hairpin. Also an arginine tag was added to the N-terminal cysteine to allow for efficient uptake by cells without any transfection reagent. Huh-7.5 cells were treated with concentrations of HCV4 peptide ranging from 100 μM to 10 pM in the HCVcc system and were immediately infected with the HCV Renilla reporter virus.

Another series has as its system Huh-7.5 cells. How it is done:
as §1
Cell viability was determined using MTT Cell Proliferation assay (ATCC, 30-1010K).
as §2

In another series the test system is HCV. Particulars: previously shown (Gonzalez et al. 2009); cited from earlier work.
The test system of series [4] is NS5A-augmented IRES-mediated translation. The following applies: previously shown (Gonzalez et al. 2009); cited from earlier work.
The target of the next series is protease (Hepatitis C virus genotype 1a, UniProt P27958). The following applies: protease assay; reported in the literature; read-out: IC50 in in vitro Assays; cited from earlier work.

“Also recorded” adds a separate entry of the source. Where two headings read alike, the source gives them in different places. Bridge positions count the residues as written; N and C are the ends. Square brackets hold non-standard residues; d marks the D form. Peptide text beside a SMILES is read from it. Cha = N[C@@H](CC1CCCCC1)C(=O)O; Ahx = NCCCCCC(=O)O Bounds are passed on as bounds.

Chain of protease (P27958 1027-1657 limits assumed): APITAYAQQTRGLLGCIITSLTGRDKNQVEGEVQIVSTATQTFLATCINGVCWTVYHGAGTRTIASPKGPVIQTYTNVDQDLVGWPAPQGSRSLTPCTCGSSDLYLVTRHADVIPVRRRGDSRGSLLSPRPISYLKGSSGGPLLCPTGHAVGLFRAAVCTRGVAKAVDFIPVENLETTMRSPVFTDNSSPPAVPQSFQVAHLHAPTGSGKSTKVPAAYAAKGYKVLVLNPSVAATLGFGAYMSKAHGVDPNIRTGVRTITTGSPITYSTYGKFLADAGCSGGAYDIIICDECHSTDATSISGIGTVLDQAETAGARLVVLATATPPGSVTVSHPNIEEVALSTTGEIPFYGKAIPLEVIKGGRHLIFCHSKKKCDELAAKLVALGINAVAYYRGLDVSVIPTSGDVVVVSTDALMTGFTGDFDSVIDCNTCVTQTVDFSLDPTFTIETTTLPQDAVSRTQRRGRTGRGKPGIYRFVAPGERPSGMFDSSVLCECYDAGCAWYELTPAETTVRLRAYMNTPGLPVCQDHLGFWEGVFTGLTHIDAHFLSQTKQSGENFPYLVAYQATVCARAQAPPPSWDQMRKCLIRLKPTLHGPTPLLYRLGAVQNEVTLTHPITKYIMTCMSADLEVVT
Chain of protease (P27958 1658-1711 partner limits assumed): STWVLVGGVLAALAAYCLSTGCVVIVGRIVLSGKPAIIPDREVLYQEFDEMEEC
Chain of polymerase (P27958 2421-3011): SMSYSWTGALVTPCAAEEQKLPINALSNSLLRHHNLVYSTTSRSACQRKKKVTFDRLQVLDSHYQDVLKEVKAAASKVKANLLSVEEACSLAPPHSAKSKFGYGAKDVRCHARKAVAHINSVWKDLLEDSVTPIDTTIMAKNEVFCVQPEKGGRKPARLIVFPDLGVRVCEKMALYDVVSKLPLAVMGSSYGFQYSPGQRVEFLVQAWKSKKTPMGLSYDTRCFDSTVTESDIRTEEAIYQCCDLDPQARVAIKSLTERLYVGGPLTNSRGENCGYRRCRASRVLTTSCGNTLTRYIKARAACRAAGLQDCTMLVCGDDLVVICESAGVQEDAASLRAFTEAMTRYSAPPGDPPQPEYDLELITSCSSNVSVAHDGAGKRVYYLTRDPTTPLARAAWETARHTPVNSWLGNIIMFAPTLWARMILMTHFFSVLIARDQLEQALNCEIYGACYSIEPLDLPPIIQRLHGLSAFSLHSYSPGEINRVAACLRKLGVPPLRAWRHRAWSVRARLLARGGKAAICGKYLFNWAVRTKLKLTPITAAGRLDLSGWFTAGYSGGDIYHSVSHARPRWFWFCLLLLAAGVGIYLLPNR

Consider `C=C[C@@H]1C[C@]1(NC(=O)[C@@H]1C[C@@H](Oc2cc(-c3csc(NC(=O)C(C)C)n3)nc3c(Br)c(OC)ccc23)CN1C(=O)[C@@H](NC(=O)OC1CCCC1)C(C)(C)C)C(=O)O` [Bl 201335], for which the 50% inhibitory concentration (IC50) in the series on replicon is 3.1 to 50 nM.
On to `CCc1cc(CC[C@]2(C3CCCC3)CC(O)=C(Cc3nc4nc(C)cc(C)n4n3)C(=O)O2)cc(CC)n1` [Filibuvir], for which, in series [1], the IC50 is 50 nM.
On to `Fc1ccccc1-c1nc2ccn(Cc3ccc(-c4ccc(C(F)(F)F)cc4C(F)(F)F)nn3)cc-2n1` [GS-9190, Tegobuvir], for which the IC50 at polymerase was > 71000 nM.
With `CC(C)[C@@H]1NC(=O)[C@H](CCCNC(=N)N)NC(=O)[C@H](Cc2ccccc2)NC(=O)[C@H](CO)NC(=O)[C@@H](NC(=O)CCCCCNC(=O)CCCCCNC(=O)[C@H](CCCNC(=N)N)NC(=O)CCCCCNC(=O)[C@H](CCCNC(=N)N)NC(=O)CCCCCNC(=O)[C@H](CCCNC(=N)N)NC(=O)CCCCCNC(=O)[C@H](CCCNC(=N)N)NC(=O)CCCCCNC(=O)[C@H](CCCNC(=N)N)NC(=O)CCCCCNC(=O)[C@H](CCCNC(=N)N)NC(=O)CCCCCNC(=O)[C@@H](N)CCCNC(=N)N)CSSC[C@@H](C(N)=O)NC(=O)[C@@H]2CCCN2C(=O)[C@H](Cc2ccc(O)cc2)NC(=O)[C@H](CCC(=O)O)NC(=O)[C@H](Cc2c[nH]cn2)NC(=O)[C@H](CC2CCCCC2)NC(=O)[C@H]2CCCN2C1=O` [HCV4, Arg-(Ahx-Arg)6-Ahx-Ahx-Cys-Ser-Phe-Arg-Val-(D)Pro-Cha-His-Glu-Tyr-Pro-Cys] (H-R[Ahx]R[Ahx]R[Ahx]R[Ahx]R[Ahx]R[Ahx]R[Ahx][Ahx]CSFRV[dP][Cha]HEYPC-NH2; disulfide 16-27; N-terminus assumed), the “effect of peptide treatment on NS5A-augmented IRES-mediated translation” value in [2] is “blocks”. The concentration for half-maximal inhibition (IC50) in series [3] (read-out: IC50 in Cell Culture, reporter virus) is 0.542 nM; in [3] (read-out: estimated IC50, intracellular viral protein production, Huh-7.5 cells treated with peptide 100 μM to 10 pM, immediately infected with HCV Renilla reporter virus, Renilla activity 24 hours post infection) it was ~0.5 nM. Besides, the results for the MTT toxicity result with Huh-7.5 cells (10 μM), in the series on Huh-7.5 cells (100 μM) and with Huh-7.5 cells (any concentration lower than 10 μM) were “slight toxicity”, “toxicity” and “no cytotoxicity”, respectively.
In the case of `CC(C)(C)OC(=O)N[C@H]1CCCCC/C=C\[C@@H]2C[C@@]2(C(=O)NS(=O)(=O)C2CC2)NC(=O)[C@@H]2C[C@@H](OC(=O)N3Cc4cccc(F)c4C3)CN2C1=O` [ITMN-191, Da noprevir], the half-inhibitory concentration (IC50) in the series on replicon is 1.8 nM.
Take `CC[C@@H]1C[C@]1(NC(=O)[C@@H]1C[C@@H]2CN1C(=O)[C@H](C(C)(C)C)NC(=O)OCC(C)(C)CCCCc1cccc3c1CN(C3)C(=O)O2)C(=O)NS(=O)(=O)C1CC1` [MK-7009, Vaniprevir]: the half-inhibitory concentration (IC50) with replicon is 5 to 15 nM.
As for `O=c1c(O)c(-c2ccc(O)c(O)c2)oc2cc(O)cc(O)c12` [Quercetin], the “effect on virus production” value in the series on HCV is on record as “blocked”. For the same molecule, the “effect on NS5A-augmented IRES-mediated translation” value in series [4] is on record as “blocked”.
In the case of `CC(C)C(=O)OC[C@H]1O[C@@H](n2ccc(N)nc2=O)[C@](C)(F)[C@@H]1OC(=O)C(C)C` [R7128 (PSI-6130)], in the series on replicon, the IC50 was 600 nM.
As to `C/C=C/C[C@@H](C)[C@@H](O)[C@H]1C(=O)N[C@@H](CC)C(=O)N(C)[C@H](SCCN(C)C)C(=O)N(C)[C@@H](CC(C)(C)O)C(=O)N[C@@H](C(C)C)C(=O)N(C)[C@@H](CC(C)C)C(=O)N[C@@H](C)C(=O)N[C@H](C)C(=O)N(C)[C@@H](CC(C)C)C(=O)N(C)[C@@H](CC(C)C)C(=O)N(C)[C@@H](C(C)C)C(=O)N1C` [SCY-635], in the series on replicon, the IC50 is 140 nM.
As to `COc1ccc2c(O[C@@H]3C[C@H]4C(=O)N[C@]5(C(=O)NS(=O)(=O)C6CC6)C[C@H]5/C=C\CCCCN(C)C(=O)[C@@H]4C3)cc(-c3nc(C(C)C)cs3)nc2c1C` [TMC435], the 50% inhibitory concentration (IC50) at protease was 13 nM.
“LREEVSFRVGLHEYPVGSQLPCEP EPDVAVLTSM [C34]”: the “effect of expressed peptide on NS5A-augmented IRES-mediated translation” value in [2] (293T cells transfected with IRES reporter, NS5A or GFP, and peptide construct, 48 hours post transfection) is “block; also recorded: suppresses”. Also, in the series with Huh-7.5 cells (expressed from construct, data not shown), the “cell viability by MTT on peptide expression” value is on record as “no effect”.
As to “R-(Ahx-R)6—CONH2 [arginine tag control peptide, reference compound]”, the “effect of peptide treatment on NS5A-augmented IRES-mediated translation” value in [2] is “fail to produce similar results”. In series [3] (peptide added to Huh-7.5 cells without transfection reagent, immediately infected with Renilla reporter virus, assayed 24 hours post infection), the “effect on intracellular viral protein production” value is “did not show any effect”.

What is called IC50 is the point on the concentration scale where inhibition reaches its midpoint.
